What was measured:
[1] = tested on: glioma cell lines; assay: 72-hour acute cytotoxicity synergy assay in combination with regorafenib (ZIP synergy score); type: cell-based
Experimental: The combined inhibition of a resistance mechanism or a synthetic lethal interactor with regorafenib treatment should enhance the effect of regorafenib alone. Therefore, drugs targeting the different identified gene products were used in acute cytotoxicity synergy assays in combination with regorafenib to analyze the synergistic effect of drug combinations. Each of the 15 drugs was tested in a 72-hour acute cytotoxicity synergy assay in combination with regorafenib on six glioma cell lines in two independent runs. The calculated ZIP synergy score for each combination indicates if a combination is synergistic, the higher the score the stronger is the synergism. For the heatmaps shown in Fig. 3 the synergy scores were normalized within each cell line taking the highest synergy score detected in this cell line as 100% and a synergy score of 0 as 0%. For each target shown here identified in the CRISPR/Cas9 screens, the inventors detected a synergistic effect of the drug combination (for at least one drug when several drugs for the same target were tested).

[2] = tested on: SMA560 cells; assay: in vivo glioma model, intracranially transplanted SMA560 cells; settings: VM/Dk mice intracranially transplanted with SMA560 cells; treated for three weeks; experiment stopped at day 120; solvent control 58 days
Experimental: For drugs targeting Bcl2 family members (navitoclax, venetoclax), MEK1/MAP2K1 (selumetinib, trametinib), integrins (cilengitide), and ARAF (sorafenib) further assays were performed to analyze the synergistic effect in combination with Regorafenib. […] The inventors extracted primary cells from glioblastoma tissue to test our drug combinations ex vivo. Analyzing the combination effect on cell viability of regorafenib and navitoclax on four glioblastoma primary cultures the observed effect of the combination treatment was in each model synergistic compared to the predicted effect calculated from both monotherapies (Figs. 4 E and F). The combination of navitoclax and regorafenib was further validated in vivo in VM/Dk mice intracranially transplanted with SMA560 cells (data not shown). The mice were treated either with the drug combination, regorafenib, or navitoclax monotherapies, or a solvent control for three weeks. Time until onset of neurological symptoms was observed. The solvent control group reached its median after 58 days, navitoclax monotherapy after 60 days, and regorafenib monotherapy after 67 days.

[3] = tested on: glioma cell lines; assay: clonogenic survival assay; type: cell-based; settings: combination with regorafenib vs regorafenib monotherapy

CC1(C)CCC(CN2CCN(c3ccc(C(=O)NS(=O)(=O)c4ccc(NCC5CCOCC5)c([N+](=O)[O-])c4)c(Oc4cnc5[nH]ccc5c4)c3)CC2)=C(c2ccc(Cl)cc2)C1 [venetoclax]
synergistic effect in acute cytotoxicity synergy assays (ZIP synergy score) [1]: synergistic effects

CNC(=O)c1cc(Oc2ccc(NC(=O)Nc3ccc(Cl)c(C(F)(F)F)c3)c(F)c2)ccn1 [regorafenib]
Time until onset of neurological symptoms (median) [2]: 67 days

CC1(C)CCC(c2ccc(Cl)cc2)=C(CN2CCN(c3ccc(C(=O)NS(=O)(=O)c4ccc(N[C@H](CCN5CCOCC5)CSc5ccccc5)c(S(=O)(=O)C(F)(F)F)c4)cc3)CC2)C1 [navitoclax]
synergistic effect in acute cytotoxicity synergy assays (ZIP synergy score) [1]: synergistic effects | number of clones in clonogenic survival assays, combination treatment compared with regorafenib monotherapy [3]: significantly reduced numbers of clones | Time until onset of neurological symptoms (median) [2]: 60 days

Source: EP4527386A1, “ANTI-CANCER PHARMACEUTICAL COMPOSITION COMPRISING REGORAFENIB” (Eberhard-Karls-Universität Tübingen Universitätsklinikum, priority 2023, dated 2025)
